Measured values taken from US20240139197A1, “INHIBITION OF KDM5A FOR PROMOTING ANTIGEN PRESENTATION, INCREASING CD8+ T CELL INFILTRATION AND BOOSTING ANTI-TUMOR IMMUNE RESPONSE” (The Wistar Institute of Anatomy and Biology, priority 2022, published 2024).

Experiments:
ID8 cells [1] = assay: cell viability by colony formation assay, ID8; type: cell-based, mouse; details: ID8, 10 μM, 8 days
Description: FIG. 2A-FIG. 2J show KDM5A inhibition suppresses tumor growth in vivo in an immune-competent mouse model of ovarian cancer. (FIG. 2A) Expression of Kdm5a, H3K4me3, and a loading control β-actin in doxycycline-inducible shKdm5a ID8 mouse EOC cells treated with or without 2 μg/mL of doxycycline. (FIG. 2B) ID8 cells were plated into 24 well plates and treated with 2 μg/mL of doxycycline the same day. Cells were incubated for 8 days. Relative cell viability was determined by colony formation assay. (FIG. 2C) Expression of Kdm5a, H3K4me3, and a loading control β-actin in ID8 cells treated with 10uM CPI-455 or vehicle control. (FIG. 2D) ID8 cells were plated into 24 well plates and incubated with 10 μM CPI-455 for 8 days with fresh drug-containing media every 3 days. Relative cell viability was determined by colony formation assay. (FIG. 2E) Ascites produced in C57BL/6 mice injected with doxycycline-inducible shKdm5a ID8 cells treated with control or doxycycline containing food. (FIG. 2F) Quantification of ascites volumes from FIG. 2E. (FIG. 2G) Kaplan-Meier survival curves for the indicated groups. […] (FIG. 21) Quantification of ascites volumes from FIG. 2H. […] Data represent mean±SEM of three biological repeats or 5 mice per group; P-value was calculated by using a two-tailed Student t test except in FIG. 2G and FIG. 2J by log rank tests. […]

ID8 cells [2] = assay: syngeneic ovarian cancer mouse model, CPI-455 treatment; type: in vivo; details: 50 mg/kg i.p., immuno-competent C57BL/6 mice bearing ID8
[3] = test system: H2-K1 gene promoter in ID8 cells; assay: ChIP at H2-K1 gene promoter; type: cell-based, mouse; details: ID8, IFNγ, anti-H3K4me3 ChIP
Description: FIG. 4A-FIG. 4M show KDM5A regulates antigen processing and presentation pathway. (FIG. 4A) Experimental strategy used to identify Kdm5a direct target genes. […] (FIG. 4B) CUT&RUN tracks of the newly identified Kdm5a target gene H2-K1 for Kdm5a and H3K4me3 in ID8 cells. (FIG. 4C) Expression of H2-K1 in doxycycline-inducible shKdm5a ID8 cells, Kdm5a inhibitor CPI-455, or Kdm5a knockout cells with or without IFNγ stimulation determined by RT-qPCR. (FIG. 4D) Cell surface expression of H2-K1 in control and Kdm5a knockout ID8 cells with or without IFNy stimulation was determined by FACS analysis. (FIG. 4E) Quantification of FIG. 4D. (FIG. 4F) Cell surface expression of H2-K1 in control and doxycyclineinducible Kdm5a-knockdown ID8 cells with or without IFNγ stimulation was determined by FACS analysis. (FIG. 4G) Quantification of FIG. 4F. (FIG. 4H) Cell surface expression of H2-K1 in D8 cells treated with vehicle or CPI-455 with or without IFNγ stimulation was determined by FACS analysis. (FIG. 4I) Quantification of FIG. 4H; An isotype matched IgG was used as a negative control for all the FACS analysis. […] Data represent mean±SEM of three biological repeats; P-value was calculated by using a two-tailed Student t test except in FIG. 4L by using Pearson r analysis test and FIG. 4M by using Fisher's exact test. […]

CPI-455
cell viability (ID8 cells [1]): did not affect cell viability | ascites production (ID8 cells [2]): significantly reduced ascites production | survival of tumor bearing mice (ID8 cells [2]): improved the survival | association of H3K4me3 with H2-K1 gene promoter [3]: increased the association of H3K4me3
